Measurements reported in ChEMBL document CHEMBL1127209, “Aromatic isosteres as conformational probes for an isoprenyl subunit: application to inhibitors of squalene synthase” (Bioorg Med Chem Lett, 1993).

T1: Squalene synthase (Rattus norvegicus, UniProt Q02769)
T1 sequence (Q02769 whole entry): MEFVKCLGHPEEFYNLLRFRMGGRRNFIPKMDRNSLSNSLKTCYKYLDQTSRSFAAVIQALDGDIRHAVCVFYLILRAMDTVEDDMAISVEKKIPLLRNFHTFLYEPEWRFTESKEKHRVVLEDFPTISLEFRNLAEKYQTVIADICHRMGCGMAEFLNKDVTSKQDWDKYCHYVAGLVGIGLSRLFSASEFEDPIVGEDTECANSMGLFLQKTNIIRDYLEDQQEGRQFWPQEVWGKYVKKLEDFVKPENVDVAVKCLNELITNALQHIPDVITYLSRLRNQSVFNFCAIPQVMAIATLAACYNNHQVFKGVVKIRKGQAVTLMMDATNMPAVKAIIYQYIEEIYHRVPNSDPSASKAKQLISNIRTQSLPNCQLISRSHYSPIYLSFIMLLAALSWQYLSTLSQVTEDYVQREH

B1: Squalene synthase (Rattus norvegicus), Q02769 (protein)
chain: T1 sequence (Q02769 whole entry)

What follows are molecules tested against T1, Squalene synthase (assay: Tested for inhibitory potency against rat liver microsomal squalene synthase). Conditions: not given.

| Molecule | Ki |
| --- | --- |
| CC(C)=CCC/C(C)=C\CC/C(C)=C/COCP(=O)(O)CP(=O)(O)O | 37 nM |

Same assay, conditions: read-out: I50

| Molecule | IC50 |
| --- | --- |
| CC(C)=CCC/C(C)=C/c1ccc(COCP(=O)(O)CP(=O)(O)O)c(C)c1 | 13700 nM |
| CC(C)=CCC/C(C)=C/c1cccc(COCP(=O)(O)CP(=O)(O)O)c1 | 5100 nM |
| CC(C)=CCC/C(C)=C/c1cc(C)c(COCP(=O)(O)CP(=O)(O)O)o1 | 41300 nM |
| CC(C)=CCC/C(C)=C\CC/C=C/COCP(=O)(O)CP(=O)(O)O | 165 nM |
| CC(C)=CCC/C(C)=C/c1cc(C)c(COCP(=O)(O)CP(=O)(O)O)s1 | 5300 nM |
| CC(C)=CCC/C(C)=C\CC/C(C)=C/COCP(=O)(O)CP(=O)(O)O | 50 nM |
| CC(C)=CCC/C(C)=C/c1ccc(COCP(=O)(O)CP(=O)(O)O)s1 | 964 nM |
| CC(C)=CCC/C(C)=C/c1ccc(COCP(=O)(O)CP(=O)(O)O)cc1 | 125 nM |

The molecules below were run on CC(C)=CCC/C(C)=C\CC/C(C)=C/COCP(=O)(O)CP(=O)(O)O (assay: Tested for Michaelis-Menten constant for squalene synthase). Conditions: not given.

| Molecule | Km |
| --- | --- |
| B1 | 12.7 µM |
